According to patent US11987570B1, “10-(2-hydroxyethyl)-9-(2-hydroxypyridin-3-yl)-3,4,6,7,9,10-hexahydroacridine-1,8(2H,5H)-dione as an antimicrobial compound” (KING FAISAL UNIVERSITY, priority 2023, dated 2024):

Columns and labels:
Format in all cases: cell-based
Details in all cases: after 10, 20, 40 and 60 minutes at all dilutions 1:100, 1:200, 1:400, 1:800
Staphylococcus aureus = test: Antimicrobial screening by agar dilution, Staphylococcus aureus
Description: (§1) The antibacterial properties of the synthesized compound (10-(2-hydroxyethyl)-9-(2-hydroxypyridin-3-yl)-3,4,6,7,9,10-hexahydroacridine-1,8(2H,5H)-dione) were studied by the method of agar dilution. Test solutions of each compound was prepared in concentration of 1% using dimethylformamide as a solvent then they are diluted in physiological solution to obtain the final experimental dilutions 1:100, 1:200, 1:400, 1:800. The effect of these substances are compared with furacillin in a controllable study. The testing microbes used were gram positive bacteria Staphylococcus aureus, gram negative bacteria Pseudomonas aeruginosa and Escherichia coli and Candida albicans fungus. The experiments used for this survey were meat-pentonlu agar (EPA) for cultivation of bacteria and Saburo environment for the fungus. Each experiment used 1 mL of test solution on each plate […]. Two drops of emulsified with microbes feel were added. All experimental samples were taken from the agar after 10, 20, 40, 60 minutes in the environment on the basis of Patrk planted. The bacteria were cultivated at a temperature of 37° C. for 1 day and the mushroom was kept in a thermostat for 2 hours at a temperature of 28° C. Then results were checked.

Candida albicans = test: Antimicrobial screening by agar dilution, Candida albicans
Description: as §1

Escherichia coli = test: Antimicrobial screening by agar dilution, Escherichia coli
Description: as §1

Pseudomonas aeruginosa = test: Antimicrobial screening by agar dilution, Pseudomonas aeruginosa
Description: as §1

Measured: inhibition activity

O=C1CCCC2=C1C(c1cccnc1O)C1=C(CCCC1=O)N2CCO [10-(2-hydroxyethyl)-9-(2-hydroxypyridin-3-yl)-3,4,6,7,9,10-hexahydroacridine-1,8(2H,5H)-dione]
highest inhibition activity: Staphylococcus aureus | Candida albicans | Escherichia coli | Pseudomonas aeruginosa
